Measurements from PubChem BioAssay (NCI).
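Five concentrations, 48 hours, 96-well plates. Definition used: TGI = concentration required for complete inhibition of growth.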

Columns and labels:
Test in all cases: growth of human tumour cells (NCI), 48 h
U251 CNS = system: U251 CNS
OVCAR-4 ovarian = system: OVCAR-4 ovarian
NCI-H522 lung = system: NCI-H522 lung
SNB-19 CNS = system: SNB-19 CNS
XF 498 CNS = system: XF 498 CNS
MALME-3M melanoma = system: MALME-3M melanoma
HOP-92 NSCLC = system: HOP-92 NSCLC
M14 melanoma = system: M14 melanoma
MCF7 breast = system: MCF7 breast
RXF-631 renal = system: RXF-631 renal
OVCAR-8 ovarian = system: OVCAR-8 ovarian
DU-145 prostate = system: DU-145 prostate
SW-620 colon = system: SW-620 colon
CCRF-CEM leukemia = system: CCRF-CEM leukemia
K-562 leukemia = system: K-562 leukemia
IGROV1 ovarian = system: IGROV1 ovarian
A549 NSCLC = system: A549 NSCLC
KM12 colon = system: KM12 colon
UACC-257 melanoma = system: UACC-257 melanoma
UACC-62 melanoma = system: UACC-62 melanoma
OVCAR-5 ovarian = system: OVCAR-5 ovarian
HCC-2998 colon = system: HCC-2998 colon
MDA-MB-435 = system: MDA-MB-435
RPMI-8226 leukemia = system: RPMI-8226 leukemia
OVCAR-3 ovarian = system: OVCAR-3 ovarian
DMS 114 small cell lung = system: DMS 114 small cell lung
NCI-H23 lung = system: NCI-H23 lung
SK-MEL-2 melanoma = system: SK-MEL-2 melanoma
M19-MEL melanoma = system: M19-MEL melanoma
LOX IMVI melanoma = system: LOX IMVI melanoma
COLO 205 colon = system: COLO 205 colon
NCI-H460 lung = system: NCI-H460 lung
PC-3 prostate = system: PC-3 prostate
HS 578T breast = system: HS 578T breast
LXFL 529 NSCLC = system: LXFL 529 NSCLC
DMS 273 small cell lung = system: DMS 273 small cell lung
786-0 renal = system: 786-0 renal
HT29 colon = system: HT29 colon
HOP-62 NSCLC = system: HOP-62 NSCLC
CAKI-1 renal = system: CAKI-1 renal
DLD-1 colon = system: DLD-1 colon
MDA-N = system: MDA-N
SF-268 CNS = system: SF-268 CNS
TK-10 renal = system: TK-10 renal
HCT-15 colon = system: HCT-15 colon
RXF 393 renal = system: RXF 393 renal
SR leukemia = system: SR leukemia
T-47D breast = system: T-47D breast
SNB-75 CNS = system: SNB-75 CNS
EKVX NSCLC = system: EKVX NSCLC
SN12C renal = system: SN12C renal
SF-295 CNS = system: SF-295 CNS
HCT-116 colon = system: HCT-116 colon
SK-MEL-5 melanoma = system: SK-MEL-5 melanoma
SF-539 CNS = system: SF-539 CNS
NCI-H226 lung = system: NCI-H226 lung
NCI/ADR-RES ovarian = system: NCI/ADR-RES ovarian
ACHN renal = system: ACHN renal
BT-549 breast = system: BT-549 breast
UO-31 renal = system: UO-31 renal
HOP-18 NSCLC = system: HOP-18 NSCLC
SK-OV-3 ovarian = system: SK-OV-3 ovarian
SK-MEL-28 melanoma = system: SK-MEL-28 melanoma
A498 renal = system: A498 renal
MOLT-4 leukemia = system: MOLT-4 leukemia
KM20L2 colon = system: KM20L2 colon
HL-60(TB) leukemia = system: HL-60(TB) leukemia
SNB-78 CNS = system: SNB-78 CNS

CCOC(=O)NC(=O)c1cn(CCCOC(=O)CCCCCCCCC(=O)OCCCn2cc(C(=O)NC(=O)OCC)c(=O)n(C)c2=O)c(=O)n(C)c1=O
TGI (U251 CNS): > 100 µM | TGI (OVCAR-4 ovarian): > 100 µM | TGI (NCI-H522 lung): > 100 µM | TGI (SNB-19 CNS): > 100 µM | TGI (XF 498 CNS): > 93.8 µM | TGI (MALME-3M melanoma): > 100 µM | TGI (HOP-92 NSCLC): > 100 µM | TGI (M14 melanoma): > 100 µM | TGI (MCF7 breast): > 100 µM | TGI (RXF-631 renal): > 100 µM | TGI (OVCAR-8 ovarian): > 100 µM | TGI (DU-145 prostate): > 100 µM | TGI (SW-620 colon): > 100 µM | TGI (CCRF-CEM leukemia): > 46.4 µM | TGI (K-562 leukemia): > 100 µM | TGI (IGROV1 ovarian): > 100 µM | TGI (A549 NSCLC): > 100 µM | TGI (KM12 colon): > 100 µM | TGI (UACC-257 melanoma): > 100 µM | TGI (UACC-62 melanoma): > 100 µM | TGI (OVCAR-5 ovarian): > 100 µM | TGI (HCC-2998 colon): > 100 µM | TGI (MDA-MB-435): > 100 µM | TGI (RPMI-8226 leukemia): > 100 µM | TGI (OVCAR-3 ovarian): > 100 µM | TGI (DMS 114 small cell lung): > 100 µM | TGI (NCI-H23 lung): > 100 µM | TGI (SK-MEL-2 melanoma): > 100 µM | TGI (M19-MEL melanoma): > 100 µM | TGI (LOX IMVI melanoma): > 100 µM | TGI (COLO 205 colon): > 100 µM | TGI (NCI-H460 lung): > 100 µM | TGI (PC-3 prostate): > 100 µM | TGI (HS 578T breast): > 100 µM | TGI (LXFL 529 NSCLC): > 100 µM | TGI (DMS 273 small cell lung): > 100 µM | TGI (786-0 renal): > 100 µM | TGI (HT29 colon): > 100 µM | TGI (HOP-62 NSCLC): > 96.6 µM | TGI (CAKI-1 renal): > 100 µM | TGI (DLD-1 colon): > 100 µM | TGI (MDA-N): > 100 µM | TGI (SF-268 CNS): > 100 µM | TGI (TK-10 renal): > 100 µM | TGI (HCT-15 colon): > 100 µM | TGI (RXF 393 renal): > 100 µM | TGI (SR leukemia): > 100 µM | TGI (T-47D breast): > 100 µM | TGI (SNB-75 CNS): > 77.8 µM | TGI (EKVX NSCLC): > 100 µM | TGI (SN12C renal): > 100 µM | TGI (SF-295 CNS): > 100 µM | TGI (HCT-116 colon): > 100 µM | TGI (SK-MEL-5 melanoma): > 100 µM | TGI (SF-539 CNS): > 100 µM | TGI (NCI-H226 lung): > 100 µM | TGI (NCI/ADR-RES ovarian): > 100 µM | TGI (ACHN renal): > 100 µM | TGI (BT-549 breast): > 100 µM | TGI (UO-31 renal): > 100 µM | TGI (HOP-18 NSCLC): > 100 µM | TGI (SK-OV-3 ovarian): > 100 µM | TGI (SK-MEL-28 melanoma): > 100 µM | TGI (A498 renal): > 100 µM | TGI (MOLT-4 leukemia): > 100 µM | TGI (KM20L2 colon): > 100 µM | TGI (HL-60(TB) leukemia): > 100 µM

Cc1cccc(C(C)(C)C)c1NC(=O)CCl
TGI (U251 CNS): > 100 µM | TGI (OVCAR-4 ovarian): > 100 µM | TGI (NCI-H522 lung): > 100 µM | TGI (SNB-19 CNS): > 100 µM | TGI (XF 498 CNS): > 100 µM | TGI (MALME-3M melanoma): > 100 µM | TGI (M14 melanoma): > 100 µM | TGI (RXF-631 renal): > 100 µM | TGI (OVCAR-8 ovarian): > 100 µM | TGI (SW-620 colon): > 100 µM | TGI (CCRF-CEM leukemia): > 100 µM | TGI (K-562 leukemia): > 100 µM | TGI (IGROV1 ovarian): > 100 µM | TGI (A549 NSCLC): > 100 µM | TGI (KM12 colon): > 100 µM | TGI (UACC-257 melanoma): > 100 µM | TGI (UACC-62 melanoma): > 100 µM | TGI (HCC-2998 colon): > 100 µM | TGI (OVCAR-3 ovarian): > 100 µM | TGI (NCI-H23 lung): > 100 µM | TGI (SK-MEL-2 melanoma): > 100 µM | TGI (M19-MEL melanoma): > 100 µM | TGI (LOX IMVI melanoma): > 100 µM | TGI (COLO 205 colon): > 100 µM | TGI (NCI-H460 lung): > 100 µM | TGI (LXFL 529 NSCLC): > 100 µM | TGI (DMS 273 small cell lung): > 100 µM | TGI (786-0 renal): > 100 µM | TGI (HT29 colon): > 100 µM | TGI (HOP-62 NSCLC): > 100 µM | TGI (CAKI-1 renal): > 100 µM | TGI (DLD-1 colon): > 100 µM | TGI (SF-268 CNS): > 100 µM | TGI (TK-10 renal): > 100 µM | TGI (RXF 393 renal): > 100 µM | TGI (SR leukemia): > 100 µM | TGI (SNB-75 CNS): > 100 µM | TGI (EKVX NSCLC): > 100 µM | TGI (SN12C renal): > 100 µM | TGI (SF-295 CNS): > 100 µM | TGI (HCT-116 colon): > 100 µM | TGI (SK-MEL-5 melanoma): > 100 µM | TGI (SF-539 CNS): > 100 µM | TGI (NCI-H226 lung): > 100 µM | TGI (ACHN renal): > 100 µM | TGI (SNB-78 CNS): > 100 µM | TGI (UO-31 renal): > 100 µM | TGI (HOP-18 NSCLC): > 100 µM | TGI (SK-OV-3 ovarian): > 100 µM | TGI (SK-MEL-28 melanoma): > 100 µM | TGI (A498 renal): > 100 µM | TGI (MOLT-4 leukemia): > 100 µM | TGI (KM20L2 colon): > 100 µM | TGI (HL-60(TB) leukemia): > 100 µM
